Experimental data reported in patent US9050275B2, “Methods of screening for and treating autism spectrum disorders and compositions for same” (Theta Biomedical Consulting & Development Co., Inc., priority 2009, dated 2015).
“And” between values parts separate entries of the source, which are not always exact repeats. Identical values can stand only once. Like-named read-outs stand apart in the source and are kept apart here. Where no end group is shown, it is not given here.

Columns and labels:
LAD2 human mast cells [1] = assay: cells; assay type: cell-based; conditions: for VEGF release / SP-induced VEGF release / HgCl2-induced VEGF release: 24 hours; for inhibition at 100 µM: Homo sapiens, LAD2, luteolin 0.1 mM, 10 min pretreatment
Description: (§1) LAD2 human mast cells were cultured in serum-free media (StemPro-34; GIBCO, Grand Island, N.Y.) supplemented with 2 mM L-glutamine, 100 IU/ml penicillin, 50 μg/ml streptomycin, and 100 ng/ml recombinant human Stem Cell Factor (rhSCF, obtained from Amgen, Inc., Thousand Oaks, Calif.). For optimal cell growth, LAD2 cell density was maintained between 0.5×106 and 1×10^6 cells/ml. Cell viability was assessed at 1 and 24 hr using trypan blue (0.3%) exclusion.
LAD2 cells were washed with DPBS and suspended in complete culture medium. LAD2 cells (2×10^5 cells/well/200 μl) were plated in 96 well flat bottom Falcon cell culture plates (Becton Dickinson, Franklin Lakes, N.J.) and were pre-incubated for 15 min at 37° C. in 5% CO2 atmosphere. The cells were then incubated with either SP (2 μM), HgCl2 (10 μM), or thimerosal (1, 10 μM) for 24 hours at 37° C. Control cells were treated with equal volume of only culture medium. For the inhibition experiments, thimerosal or methyl thiosalicylate were added together with the triggers, while luteolin was added 10 min before the triggers. After the reaction time, plates were centrifuged and the supernatant was gently collected from the wells and stored at −20° C. until VEGF was measured by Enzyme-Linked Immunosorbent Assay (ELISA) using a commercial kit (R&D Systems, Minneapolis, Minn.). The minimum detectable level of VEGF was 5 pg/ml.

mast cells = assay: Inhibition of mast cells by quercetin; assay type: cell-based; conditions: Mast cell
[2] = system: human cultured LAD2 cells; assay: Release of mitochondrial DNA from LAD2 mast cells (real time PCR); assay type: cell-based; conditions: 5 min pretreatment with luteolin; neurotensin stimulation
Description: Total DNA was extracted from supernatant fluids of cultured LAD2 cells using Qiagen DNA Micro extraction kit (Qiagen, Calif.). Mitochondrial specific DNA for Cytochrome B (Mt-CytB) and 7S (Mt-7S) was detected and quantified by Real time PCR using Taqman assay (Mt-7S: Hs02596861_s1; Mt-CYB: Hs02596867_s1; GAPDH: Hu, VIC, TAMRA, Applied Biosystems, Calif.). GAPDH DNA was used to exclude any genomic “contamination.”

Male BALB/6 mice = assay: Brain blood vessel leakage by Evans blue extravasation; assay type: in vivo
Description: Male BALB/6 mice (6 weeks old, Jackson Laboratories, Bar Harbor, Me.) were injected in their tail vein with 0.2 ml of Evans blue (0.4%). Binding of Evans blue to the albumin found in the blood prevents Evans blue from escaping the circulation and constitutes a good biomarker from extravasation in brain parenchyma.
Mice were anesthetized with a single intraperitoneal injection of ketamine/xylazine (10 mg/kg and 80 mg/kg body weight, each), an intracardiac catheter was inserted in the left ventricle, blood was withdrawn, and 10 ml normal saline was administered intracardially to wash any Evans blue from the systemic circulation. The mice were then decapitated and the whole brain was removed. For brain extravasated Evans blue measurements, the brains were first weighed and the Evans blue was then extracted in 1 ml of N,N-dimethylformamide overnight at 55° C. and the optical density was measured at 620 nm using a PerkinElmer Luminescence Spectrophotometer (Perkin Elmer, Norwalk, Conn.). EB concentration was calculated using a standard curve and values were normalized to the tissue weight and expressed as arbitrary units/mg of tissue. Five animals per group were estimated to be sufficient for significant differences given the variability (<50%) observed. […] Values were then compared using the non-parametric Mann-Whitney U test. Significance is denoted by p<0.05.

LAD2 human mast cells [3] = conditions: thimerosal 10 μM, 24 hours, trypan blue exclusion
Description: as §1

[4] = substance 10 μM added together with SP (2 μM)

Molecule: [Cl][Hg][Cl] [HgCl2, Mercury chloride]
- VEGF release (LAD2 human mast cells [1]; 10 μM, no other trigger): 488±76 pg/106 cells
- SP-induced VEGF release (LAD2 human mast cells [1]; [4]): 553±63 pg/106 cells

Molecule: COC(=O)c1ccccc1S [Methyl thiosalicylate, methyl thiosalicylate]
- SP-induced VEGF release (LAD2 human mast cells [1]; substance 1 μM added together with SP (2 μM)): 281.63±24 pg/106 cells
- HgCl2-induced VEGF release (LAD2 human mast cells [1]; substance 1 μM added with HgCl2 (10 μM)): 258±29 pg/106 cells
- SP-induced VEGF release (LAD2 human mast cells [1]; [4]): 185.85±23 pg/106 cells
- HgCl2-induced VEGF release (LAD2 human mast cells [1]; substance 10 μM added with HgCl2 (10 μM)): 249.5±24 pg/106 cells

Molecule: O=c1c(O)c(-c2ccc(O)c(O)c2)oc2cc(O)cc(O)c12 [Quercetin]
- inhibition at 10 µM (mast cells): 80%

Molecule: O=c1cc(-c2ccc(O)c(O)c2)oc2cc(O)cc(O)c12 [luteolin, 5,7,3′,4′-tetrahydroxyflavone]
- inhibition of release of extracellular mt components from mast cells [2]: can be inhibited
- inhibition at 100 µM (LAD2 human mast cells [1]; HgCl2 10 μM, read-out: inhibition of HgCl2-stimulated VEGF release): 100%
- inhibition at 100 µM (LAD2 human mast cells [1]; thimerosal 10 μM, read-out: inhibition of thimerosal-stimulated VEGF release): 100%
- inhibition of NT-induced brain blood vessel leakage (Male BALB/6 mice; pretreatment with luteolin 40 mg/kg body weight mixed in olive kernel extract, NT 500 nmol/kg ip): completely inhibited
- inhibition of brain blood vessel leakage induced by IL-33 and NT (Male BALB/6 mice; pretreatment with the same amount of luteolin (40 mg/kg), IL-33 1 microg/mouse plus NT): 50%

Molecule: C[CH2][Hg][S]c1ccccc1C(=O)[O-].[Na+] [thimerosal]
- VEGF release (LAD2 human mast cells [1]; 1 μM, no other trigger): 326±12 pg/106 cells
- VEGF release (LAD2 human mast cells [1]; 10 μM, no other trigger): 335±12 pg/106 cells
- SP-induced VEGF release (LAD2 human mast cells [1]; [4]): 274.5±35 pg/106 cells
- decrease of viability (LAD2 human mast cells [3]): less than 10%

Molecule: Substance P (RPKPQQFFGLM-NH2; ends and bridges not checked; UniProt P20366 58-68, looked up) [SP, neuropeptide, non-allergic mast cell trigger]
- VEGF release (LAD2 human mast cells [1]; SP 2 μM alone): 445±16 pg/106 cells and 413.72±18 pg/106 cells

B1: IL-33: interleukin-33, cytokine injected intraperitoneally (protein, UniProt O95760 1-270, looked up)
Interleukin-33: MKPKMKYSTNKISTAKWKNTASKALCFKLGKSQQKAKEVCPMYFMKLRSGLMIKKEACYFRRETTKRPSLKTGRKHKRHLVLAACQQQSTVECFAFGISGVQKYTRALHDSSITGISPITEYLASLSTYNDQSITFALEDESYEIYVEDLKKDEKKDKVLLSYYESQHPSNESGDGVDGKMLMVTLSPTKDFWLHANNKEHSVELHKCEKPLPDQAFFVLHNMHSNCVSFECKTDPGVFIGVKDNHLALIKVDSSENLCTENILFKLSET
- brain leakage (Male BALB/6 mice; IL-33 1 microg/mouse, alone or with NT, Evans blue extravasation): no effect
